# Test results from patent US20260146044A1, “AROMATIC COMPOUND, PHARMACEUTICAL COMPOSITION CONTAINING SAME, AND USE THEREOF” (Increland, priority 2023, published 2026).
# Like-named read-outs stand apart in the source and are kept apart here.
# Tests used:
# [1] = target: T1, IRAK4 protein (Homo sapiens, UniProt Q9NWZ3); assay: IRAK4 protein degradation in THP1 cells (Western blot); type: cell-based; settings: 24 h
# T1 construct: Effects of Compounds on IRAK4 Protein Degradation in THP1 Cells; endogenous in cells; host or cells: THP-1 cells
# T1 sequence (Q9NWZ3 1-460): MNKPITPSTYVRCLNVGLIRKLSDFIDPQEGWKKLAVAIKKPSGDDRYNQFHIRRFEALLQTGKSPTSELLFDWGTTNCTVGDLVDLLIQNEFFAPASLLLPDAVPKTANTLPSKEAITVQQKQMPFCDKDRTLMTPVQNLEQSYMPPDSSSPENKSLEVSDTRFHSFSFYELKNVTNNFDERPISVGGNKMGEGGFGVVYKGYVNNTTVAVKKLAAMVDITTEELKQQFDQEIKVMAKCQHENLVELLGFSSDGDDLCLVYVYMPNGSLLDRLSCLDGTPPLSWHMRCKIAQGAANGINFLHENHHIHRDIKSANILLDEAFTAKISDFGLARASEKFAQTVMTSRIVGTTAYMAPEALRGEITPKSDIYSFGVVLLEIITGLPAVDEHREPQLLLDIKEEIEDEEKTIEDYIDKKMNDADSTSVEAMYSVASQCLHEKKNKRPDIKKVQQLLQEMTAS
# Procedure: THP-1 cells were inoculated into a 96-well cell culture plate, with 5×10^4 cells and 100 μL of a culture medium per well. The cell culture plate was cultured in an incubator with 5% CO2 at 37° C. overnight. 100 nl of a well-prepared compound stock solution and a compound-free DMSO stock solution were respectively added to cells per well. The cell culture plate was incubated in an incubator with 5% CO2 at 37° C. for 24 h. One protease inhibitor tablet and one phosphatase inhibitor tablet were added to 20 mL of a cell lysis buffer, and they were gently mixed until complete dissolution. DTT at a final concentration of 200 mM was added to a 4× sample preparation buffer to prepare a 4× sample preparation working solution. 20× electrophoretic buffer was diluted to 1× with ultrapure water. 20× transfer buffer was diluted to 1× with ultrapure water, and 20% methanol was added. […] IRAK4 protein primary antibody working solution: 20 μl of IRAK4 antibody added to 20 mL of a blocking solution; β-Actin primary antibody working solution: 2 μl of beta-actin (13E5) Rabbit mAb antibody added to 20 mL of a blocking solution. IRAK4 protein secondary antibody working solution: Donkey Anti-Goat IgG H&L (HRP) diluted 1/5,000 in a blocking solution; 3-Actin secondary antibody working solution: Anti-rabbit IgG, RP-linked antibody diluted 1/10,000 in a blocking solution. The cell culture plate was centrifuged at 3,000 rpm for 3 min, and most of the culture medium was carefully pipetted. The cell plate was inverted, and centrifuged at 300 rpm for 30 s. 45 μL of a lysis buffer was added to each well. The mixture was shaken at 300 rpm for 30 s, allowed to stand on ice for 30 min, and pipetted 30 times at 20 min. 6 μL of 4× sample preparation working solution was added to 18 μL of protein supernatant for sample preparation, and the mixture was heated at 70° C. for 10 min. Remaining protein samples were stored at −80° C. In the precast gel, 8 μl of sample was loaded into each well for electrophoresis at a constant voltage of 120 V for about 60 min, transferred using a PVDF membrane at a constant current of 300 mA for 1 h, then blocked with a blocking solution at room temperature for 1 h, and incubated in a primary antibody working solution at 4° C. overnight. The membrane was washed with 1×TBST buffer for 3×10 min. The secondary antibody working solution was incubated at room temperature for 1 h. The membrane was washed with 1×TBST buffer for 3×10 min, and a chromogenic solution was used for exposure and color development.
# [2] = Pharmacokinetic experiment on SD rats (iv and ig); type: in vivo; settings: Sprague-Dawley, rat, plasma; for Cmax: read-out: Peak plasma concentration Cmax; for bioavailability: ig 5.00 mg/kg vs iv 1.00 mg/kg, read-out: Oral bioavailability Fobs (%)
# Procedure: Pharmacokinetic experiment on SD rats: in this experiment, two administration modes: oral intragastric administration and tail vein injection were selected. Each of the compounds of the present patented invention was administered at an oral dose of 5 mg/kg at an administration volume of 10 mL/kg. […] Appropriate amounts of Solutol and H2O were proportionally added sequentially, and fully mixed ultrasonically by vortexing, to prepare a clear drug solution at 0.5 mg/mL. ICL004-protodrug was administered by intravenous injection at a dose of 1 mg/kg at an administration volume of 10 mL/kg. Right before use, an appropriate amount of the drug was accurately weighed, to prepare a final volume of 20% PEG 400 and 80% Saline. Appropriate amounts of PEG 400 and Saline were proportionally added sequentially, and fully mixed ultrasonically by vortexing, to prepare a clear drug solution at 0.1 mg/mL.
# 6 SD rats, each with body weight of 180-220 g, were randomly grouped into 2 groups. After fasting but with free access to water overnight, each […] in the first group was administered by gavage. 200 μL of blood was sampled from its eye socket into an anticoagulant tube respectively at each time point of 15 min, 30 min, 1 h, 2 h, 4 h, 6 h, 8 h, and 24 h after administration. Within one h, each of the blood samples was centrifuged at 10,000 rpm at 4° C. for 20 min (the sample was stored on an ice box prior to the centrifugation), and the supernatant (i.e., the plasma) was stored in a refrigerator at −20° C. for LC-MS/MS analysis. 200 μL of blood was sampled from the eye socket of each […] in the second group into an anticoagulant tube respectively at each time point of 5 min, 15 min, 30 min, 1 h, 2 h, 4 h, 8 h, and 24 h after administration by intravenous injection. Within one h, each of the blood samples was centrifuged at 10,000 rpm at 4° C. for 20 min (the blood sample was stored on an ice box prior to the centrifugation), and the supernatant, i.e., the plasma, was stored in a refrigerator at −20° C. for LC-MS/MS analysis.
DC50 [1] [nM],"AUC ([2]; iv, 1.00 mg/kg) [ng·h/mL]","AUC(0-inf) ([2]; iv, 1.00 mg/kg) [ng·h/mL]","Cmax ([2]; iv, 1.00 mg/kg) [ng/mL]",bioavailability ([2]; po) [%],"AUC ([2]; po, ig, 5.00 mg/kg) [ng·h/mL]","AUC(0-inf) ([2]; po, ig, 5.00 mg/kg) [ng·h/mL]","Cmax ([2]; po, ig, 5.00 mg/kg) [ng/mL]",Compound
4.67,537,776,101,7.87,268,306,23,Cc1nn(C2CCC(=O)NC2=O)c2cncc(N3CCN(C[C@H]4CC[C@H](n5cc6cc(NC(=O)c7cnn8cccnc78)c(N7CCO[C@H](C)C7)cc6n5)CC4)CC3)c12 (stereo partly shown) [TM-109]
3.12,499,526,225,46.6,580,1230,79.7,Cc1nn(C2CCC(=O)NC2=O)c2cccc(N3CC4CN(C[C@H]5CC[C@H](n6cc7cc(NC(=O)c8cnn9cccnc89)c(N8CCOCC8)cc7n6)CC5)CC4C3)c12 (stereo partly shown) [TM-57]
